Experimental findings from US7276339B2 (H. Lundbeck A/S, priority 1998, dated 2007) are described below.

Where two headings read alike, the source gives them in different places. Non-standard residues stand in square brackets, D forms with d. Residues, ends and D or L forms follow the SMILES beside them. No end group written: not given here. *: point of attachment. NMeF = CN[C@@H](Cc1ccccc1)C(=O)O; X1 = O=C(Cc1ccc(O)cc1)*

Experiment [1] has as its target rat NPFF1 receptor (Rattus norvegicus, UniProt Q9EP86). Briefly: [125I]D-Tyr-NPFF radioligand binding, membranes of COS-7 cells transiently expressing cloned rat NPFF1. On the set-up: expressed in transfected cells; host or cells: COS-7 (transient). The protocol: Transfected cells from culture flasks are scraped into 5 ml of 20 mM Tris-HCl, 5 mM EDTA, pH 7.5, and lysed by sonication. The cell lysates are centrifuged at 1000 rpm for 5 min. at 4° C., and the supernatant is centrifuged at 30,000×g for 20 min. at 4° C. […] Optimal membrane suspension dilutions, defined as the protein concentration required to bind less than 10% of the added radioligand, […], unlabeled compounds, and binding buffer to a final volume of 250 μl. In equilibrium saturation binding assays membrane preparations are incubated in the presence of increasing concentrations of [^3H]-labeled compound. […] Competition assay: 50 pM radioligand, 10-12 points. Binding reaction mixtures are incubated for 2 hr at 25° C., and the reaction stopped by filtration through a double layer of GF filters treated with 0.1% polyethyleneimine, using a cell harvester. Wash buffer: 50 mM Tris-HCl, 0.1% BSA. Radioactivity may be measured by scintillation counting and data are analyzed by a computerized non-linear regression program. Non-specific binding is defined as the amount of radioactivity remaining after incubation of membrane protein in the presence of 1 μM final concentration […]. Protein concentration may be measured by the Bradford method using Bio-Rad Reagent, with bovine serum albumin as a standard.
Cos-7 cells transiently expressing the gene encoding the novel rat NPFF1 receptor were used for pharmacological evaluation.

In experiment [2] the target is rat spinal cord membrane receptor. Briefly: [125I]D-Tyr-NPFF radioligand binding, rat spinal cord membranes. Particulars: competition of [125I]D-Tyr-NPFF binding; * = differs from NPFF1. The text has this: The binding profile of rat NPFF1 was compared to that of rat spinal cord membranes. […] (See * Table 2).
The target of experiment [3] is T1, NPFF1 (SNORF2) (Rattus norvegicus, UniProt Q9EP86).
T1 construct: linearized plasmids or PCR products containing the complete coding region of the genes; expressed in transfected cells; host or cells: Xenopus laevis oocytes injected with synthetic RNA (T7 transcripts)
T1 sequence (Q9EP86 whole entry): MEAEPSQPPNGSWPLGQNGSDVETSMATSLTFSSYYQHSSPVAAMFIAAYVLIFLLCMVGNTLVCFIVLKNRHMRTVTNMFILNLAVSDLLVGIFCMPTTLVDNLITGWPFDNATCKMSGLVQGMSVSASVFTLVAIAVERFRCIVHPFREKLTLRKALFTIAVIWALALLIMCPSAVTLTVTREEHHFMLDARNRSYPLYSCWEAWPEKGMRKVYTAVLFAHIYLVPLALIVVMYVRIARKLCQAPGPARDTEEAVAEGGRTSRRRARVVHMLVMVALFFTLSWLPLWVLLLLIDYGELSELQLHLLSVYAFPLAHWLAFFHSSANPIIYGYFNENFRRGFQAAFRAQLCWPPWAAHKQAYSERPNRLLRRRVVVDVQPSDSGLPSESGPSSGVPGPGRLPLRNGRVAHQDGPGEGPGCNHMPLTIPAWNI
Briefly: Voltage-clamp electrophysiology, Xenopus oocytes injected with SNORF2 (NPFF1) and chimeric Gαq/z RNA. The class given is cell-based. Particulars: for inward current response: 1 μM, oocytes with SNORF2 + Gαq/z, holding potential −80 mV; for activation of oocytes injected with SNORF2 synthetic RNA: concentration not given. The protocol: Oocytes were harvested from Xenopus laevis and injected with mRNA transcripts as previously described (Quick and Lester, 1994; Smith et al., 1997). […] Three to eight hours prior to recording, oocytes were injected with 500 pg Gαq/z mRNA in order to observe coupling to Ca^++ activated Cl^− currents. Dual electrode voltage clamp (Axon Instruments Inc.) was performed using 3 M KCl-filled glass microelectrodes having resistances of 1-2 Mohm. Unless otherwise specified, oocytes were voltage clamped at a holding potential of −80 mV. During recordings, oocytes were bathed in continuously flowing (1-3 ml/min) medium containing 96 mM NaCl, 2 mM KCl, 1.8 mM CaCl2, 1 mM MgCl2, and 5 mM HEPES, pH 7.5 (ND96). Drugs were applied either by local perfusion from a […] glass capillary tube fixed at a distance of 0.5 mm from the oocyte, or by switching from a series of gravity fed perfusion lines.
Heterologous expression of GPCRs in Xenopus oocytes has been widely used to determine the identity of signaling pathways activated by agonist stimulation (Gundersen et al., 1983; Takahashi et al., 1987). Activation of the phospholipase C (PLC) pathway is assayed by applying test compound in ND96 solution to oocytes previously injected with mRNA for the mammalian receptor and observing inward currents at a holding potential of −80 mV. The appearance of currents that reverse at −25 mV and display other properties of the Ca^++-activated Cl^− (chloride) channel is indicative of mammalian receptor-activation of PLC and release of IP3 and intracellular Ca^++.

Where [4] appears, read: competition of [125I]D-Tyr-NPFF binding, COS-7 membranes, read-out: pKi for cloned rat NPFF1 receptor binding in COS-7 cells, MEAN (converted).
Setting [5] is: competition of [125I]D-Tyr-NPFF binding, COS-7 membranes.

Sequence of rat NPFF1 receptor (Q9EP86 whole entry): as above

Take `N=C(N)NCCC[C@H](N)C(=O)O` [L-arginine]: the Ki in experiment [1] (setting [4]) was not below 10 µM.

In the case of `C[C@@H](O)[C@H](NC(=O)[C@@H](N)Cc1ccccc1)C(=O)N[C@@H](CCCNC(=N)N)C(=O)N[C@@H](Cc1ccccc1)C(N)=O` [FTRF] (H-FTRF-NH2; N-terminus and C-terminus assumed), the “pKi for rat spinal cord membrane receptor binding, MEAN” value in experiment [2] is on record as 8.16. Also, the “pKi for cloned rat NPFF1 receptor binding in COS-7 cells, MEAN” value (from here on “pKi … in COS-7 cells, MEAN”) in experiment [1] (setting [5]) stood at 7.87.

For `N=C(N)NCCC[C@@H](N)C(=O)O` [D-arginine], in experiment [1] (setting [4]), the Ki is not below 10 µM.

For the molecule Dynorphin A1-13, the “pKi for rat spinal cord membrane receptor binding, MEAN” value in experiment [2] was “*5.700”.

Consider “H-KHQYLRF-NH2 [AF-2, H-Lys-His-Gln-Tyr-Leu-Arg-Phe-NH2]”, for which the “pKi for rat spinal cord membrane receptor binding, MEAN” value in experiment [2] is “*7.965”. Moreover, the Ki in experiment [1] (setting [4]) is 0.0948 µM.

`CC(C)C[C@@H](NC(=O)[C@H](N)Cc1ccc(O)cc1)C(=O)N[C@H](Cc1ccccc1)C(=O)N[C@@H](CCC(N)=O)C(=O)N1CCC[C@H]1C(=O)N[C@@H](CCC(N)=O)C(=O)N[C@@H](CCCNC(=N)N)C(=O)N[C@@H](Cc1ccccc1)C(N)=O` [(3D)Y8Fa] (H-[dY][dL][dF]QPQRF-NH2; N-terminus assumed): the “pKi for rat spinal cord membrane receptor binding, MEAN” value in experiment [2] was determined as 9.123.

In the case of AGEGLSSPYWSLAAPQRF-NH2 [[Y^9]A18Fa], in experiment [3], the inward current response result is recorded as “displayed activity”. In addition, in experiment [2], the “pKi for rat spinal cord membrane receptor binding, MEAN” value is reported as “*8.502”.

For the molecule `C[C@@H]1CN([C@H]2CC[C@](C#N)(c3ccc(F)cc3)CC2)CC[C@]1(C(=O)O)c1ccccc1` [levocabastine], in experiment [1] (setting [4]), the Ki is not below 10 µM.

In the case of “PDKDFIVNPSDLVLDNKAALRDYLRQINEYFAIIGRPRF-NH2 (C-terminus assumed) [Neuropeptide F]”, the “pKi for rat spinal cord membrane receptor binding, MEAN” value in experiment [2] is recorded as “*8.100”. For the same molecule, in experiment [1] (setting [5]), the “pKi … in COS-7 cells, MEAN” value came out at 6.11.

Take `NCCc1ccc(O)c(O)c1` [dopamine]: the Ki in experiment [1] (setting [4]) is not below 10 µM.

For “H-KNQFIRF-NH2 [AF-1, H2N-Lys-Asn-Gln-Phe-Ile-Arg-Phe-NH2]”, in experiment [2], the “pKi for rat spinal cord membrane receptor binding, MEAN” value is on record as “*7.563”. Moreover, the Ki in experiment [1] (setting [4]) is 0.232 µM.

Turning to melanin concentrating hormone, in experiment [3], the “activation of oocytes injected with SNORF2 synthetic RNA” value (from here on “activation of oocytes injected”) is “failed to activate”.

`CC(C)C[C@@H](NC(=O)[C@H](N)Cc1ccc(O)cc1)C(=O)N[C@@H](Cc1ccccc1)C(=O)N[C@@H](CCC(N)=O)C(=O)N1CCC[C@H]1C(=O)N[C@@H](CCC(N)=O)C(=O)N[C@@H](CCCNC(=N)N)C(=O)N[C@@H](Cc1ccccc1)C(N)=O` [(2D)Y8Fa] (H-[dY][dL]FQPQRF-NH2; N-terminus assumed): the “pKi for rat spinal cord membrane receptor binding, MEAN” value in experiment [2] was “*9.212”. The “pKi … in COS-7 cells, MEAN” value in experiment [1] (setting [5]) worked out at 8.33.

As to H-PDVDHVFLRF-NH2 [SchistFLRF], the “pKi for rat spinal cord membrane receptor binding, MEAN” value in experiment [2] is recorded as 6.39.

Regarding orexin B, the “activation of oocytes injected” value in experiment [3] is “failed to activate”.

With `NCCc1c[nH]c2ccc(O)cc12` [5-HT], the “activation of oocytes injected” value in experiment [3] is reported as “failed to activate”.

Take `N=C(N)NCCC[C@H](NC(=O)[C@H](Cc1ccccc1)NC(=O)[C@@H](N)Cc1ccccc1)C(=O)N[C@@H](Cc1ccccc1)C(N)=O` [FFRF] (H-FFRF-NH2; N-terminus and C-terminus assumed): the “pKi for rat spinal cord membrane receptor binding, MEAN” value in experiment [2] stood at 8.98. In addition, in experiment [1] (setting [5]), the “pKi … in COS-7 cells, MEAN” value is 8.

As to `CSCC[C@H](NC(=O)[C@H](Cc1ccc(OS(=O)(=O)O)cc1)NC(=O)[C@@H](N)CC(=O)O)C(=O)NCC(=O)N[C@@H](Cc1c[nH]c2ccccc12)C(=O)N[C@@H](CCSC)C(=O)N[C@@H](CC(=O)O)C(=O)N[C@@H](Cc1ccccc1)C(N)=O` [CCK8], in experiment [1] (setting [5]), the “pKi … in COS-7 cells, MEAN” value is recorded as not above 5.

For `CNCCCN1c2ccccc2CCc2ccccc21` [desipramine], the Ki in experiment [1] (setting [4]) is not below 10 µM.

Take `CC(C)C[C@@H](NC(=O)[C@H](N)Cc1ccc(O)cc1)C(=O)N(C)[C@@H](Cc1ccccc1)C(=O)N[C@@H](CCC(N)=O)C(=O)N1CCC[C@H]1C(=O)N[C@@H](CCC(N)=O)C(=O)N[C@@H](CCCNC(=N)N)C(=O)N[C@@H](Cc1ccccc1)C(N)=O` [(2DME)Y8Fa] (H-[dY][dL][NMeF]QPQRF-NH2; N-terminus assumed): the “pKi for rat spinal cord membrane receptor binding, MEAN” value in experiment [2] came to 9.57. In addition, the “pKi … in COS-7 cells, MEAN” value in experiment [1] (setting [5]) was 9.2.

Take `CCNC(C)Cc1cccc(C(F)(F)F)c1` (stereo not drawn) [fenfluramine]: the Ki in experiment [1] (setting [4]) is not below 10 µM.

Turning to `CC(C)C[C@H](NC(=O)[C@H](CCCCN)NC(=O)[C@H](CCCN=C(N)N)NC(=O)[C@H](C)NC(=O)[C@H](CO)NC(=O)[C@H](CCCCN)NC(=O)[C@H](CCCN=C(N)N)NC(=O)[C@H](C)NC(=O)CNC(=O)[C@@H](NC(=O)[C@H](Cc1ccccc1)NC(=O)CNC(=O)CNC(=O)[C@@H](N)Cc1ccccc1)[C@@H](C)O)C(=O)N[C@@H](C)C(=O)N[C@@H](CC(N)=O)C(=O)N[C@@H](CCC(N)=O)C(=O)O` [nociceptin], in experiment [1], the Ki is not below 10 µM.

With TEPGLEEVGEIEQKQLQ [nocistatin], the “pKi … in COS-7 cells, MEAN” value in experiment [1] (setting [5]) was not above 5.

In the case of YLFQPQRF-NH2 [Y8Fa], in experiment [3], the inward current response entry is “displayed activity”. Further, in experiment [2], the “pKi for rat spinal cord membrane receptor binding, MEAN” value was “*9.189”.

Take `CC(C)C[C@H](NC(=O)[C@H](Cc1ccccc1)NC(=O)Cc1ccc(O)cc1)C(=O)N[C@@H](Cc1ccccc1)C(=O)N[C@@H](CCC(N)=O)C(=O)N1CCC[C@H]1C(=O)N[C@@H](CCC(N)=O)C(=O)N[C@@H](CCCNC(=N)N)C(N)=O` [desamino-nor-Y8Ra] (X1-FLFQPQR-NH2): the “pKi for rat spinal cord membrane receptor binding, MEAN” value in experiment [2] is 7.51. Besides, the “pKi … in COS-7 cells, MEAN” value in experiment [1] (setting [5]) is listed as 7.27.

With `Cc1nc2sccn2c(=O)c1CCN1CCC(=C(c2ccc(F)cc2)c2ccc(F)cc2)CC1` [ritanserine], the Ki in experiment [1] (setting [4]) was not below 10 µM.

For `CSCC[C@H](NC(=O)[C@@H]1CCCN1)C(=O)N[C@@H](CCCNC(=N)N)C(=O)N[C@@H](Cc1ccccc1)C(N)=O` [PMRFa] (H-PMRF-NH2; N-terminus assumed), in experiment [2], the “pKi for rat spinal cord membrane receptor binding, MEAN” value worked out at 9.37.

For the molecule `COc1ccc2c(c1)[nH]c1c(C)nccc12` [harmine], in experiment [1], the Ki is not below 10 µM.

B1: CCK: unrelated neuropeptide (peptide, UniProt P06307 21-115, looked up)
Cholecystokinin: QPVPPADPAGSGLQRAEEAPRRQLRVSQRTDGESRAHLGALLARYIQQARKAPSGRMSIVKNLQNLDPSHRISDRDYMGWMDFGRRSAEEYEYPS
modifications: Cholecystokinin
notes: unrelated neuropeptide
For the molecule B1, in experiment [3], the “activation of oocytes injected” value is reported as “failed to activate”.
